Consider 22 molecules from ChEMBL document CHEMBL2434826, “Multifunctional tacrine-flavonoid hybrids with cholinergic, β-amyloid-reducing, and metal chelating properties for the treatment of Alzheimer's disease” (Eur J Med Chem, 2013).

Activity calls are given as the source filed them. The rule behind the calls is not given here. Bounds are passed on as bounds.

The target of data set [1] is T1, Amyloid-beta precursor protein (Homo sapiens, UniProt P05067). The data set is described as follows: Inhibition of amyloid beta (1 to 42) (unknown origin) self-induced aggregation at 20 uM after 48 hrs by thioflavin T fluorescence assay relative to control.
Data set [2] in a line: Cytotoxicity against human SH-SY5Y cells assessed as survival at 1 uM after 24 hrs by MTT assay relative to control. Type of data set: cell-based. The note with it: read-out: Survival.
The nature of data set [3]: Cytotoxicity against human SH-SY5Y cells assessed as survival at 50 uM after 24 hrs by MTT assay relative to control. Type of data set: cell-based. The note with it: read-out: Survival.
Data set [4] is described as follows: Metal chelating activity of the compound assessed as Fe2+-complex formation in methanol at 25 uM by UV-vis spectrophotometric analysis. Type of data set: functional.
For data set [5], the system named is Radical scavenging activity. Kind of data set: Antioxidant activity assessed as DPPH radical scavenging activity at 2 mM relative to control. Type of data set: functional.
Data set [6] can be described thus: Cytotoxicity against human SH-SY5Y cells assessed as survival at 10 uM after 24 hrs by MTT assay relative to control. The data set is classed as cell-based. The note with it: read-out: Survival.
Data set [7] can be described thus: Cytotoxicity against human SH-SY5Y cells assessed as survival at 5 uM after 24 hrs by MTT assay relative to control. The note with it: read-out: Survival. The data set is classed as cell-based.
A further data set deals with Acetylcholinesterase (Electrophorus electricus, UniProt O42275).
Data set [8] in a line: Metal chelating activity of the compound assessed as Cu2+-complex formation in methanol at 25 uM by UV-vis spectrophotometric analysis. The data set is classed as functional.
Data set [9] in a line: Cytotoxicity against human SH-SY5Y cells assessed as survival at 25 uM after 24 hrs by MTT assay relative to control. The data set is classed as cell-based. The note with it: read-out: Survival.
Data set [10] deals with T1, Amyloid-beta precursor protein.
Description: Inhibition of amyloid beta (1 to 42) (unknown origin) self-induced aggregation after 48 hrs by thioflavin T fluorescence assay
For the next data set, the target named is Cholinesterase (Equus caballus, UniProt P81908).
Data set [11] addresses Acetylcholinesterase (Electrophorus electricus) (UniProt O42275). Kind of data set: Potency index, ratio of tacrine IC50 to compound IC50 for electric eel AChE.
Data set [12] has the same target. Kind of data set: Potency index, ratio of galanthamine IC50 to compound IC50 for electric eel AChE.
Data set [13] shares this target. The note with it: 7.7 to 30.8 nM.
The target in data set [14] is Cholinesterase (Equus caballus) (UniProt P81908). Kind of data set: Competitive inhibition of equine serum BuChE using […] as substrate at 22.5 to 90 nM by Lineweaver-Burk plot analysis.
The target is the same in data set [15]. Kind of data set: Potency index, ratio of galanthamine IC50 to compound IC50 for equine serum BuChE.
Data set [16] has the same target. The data set is described as follows: Potency index, ratio of tacrine IC50 to compound IC50 for equine serum BuChE.

Sequence of Acetylcholinesterase (O42275 whole entry): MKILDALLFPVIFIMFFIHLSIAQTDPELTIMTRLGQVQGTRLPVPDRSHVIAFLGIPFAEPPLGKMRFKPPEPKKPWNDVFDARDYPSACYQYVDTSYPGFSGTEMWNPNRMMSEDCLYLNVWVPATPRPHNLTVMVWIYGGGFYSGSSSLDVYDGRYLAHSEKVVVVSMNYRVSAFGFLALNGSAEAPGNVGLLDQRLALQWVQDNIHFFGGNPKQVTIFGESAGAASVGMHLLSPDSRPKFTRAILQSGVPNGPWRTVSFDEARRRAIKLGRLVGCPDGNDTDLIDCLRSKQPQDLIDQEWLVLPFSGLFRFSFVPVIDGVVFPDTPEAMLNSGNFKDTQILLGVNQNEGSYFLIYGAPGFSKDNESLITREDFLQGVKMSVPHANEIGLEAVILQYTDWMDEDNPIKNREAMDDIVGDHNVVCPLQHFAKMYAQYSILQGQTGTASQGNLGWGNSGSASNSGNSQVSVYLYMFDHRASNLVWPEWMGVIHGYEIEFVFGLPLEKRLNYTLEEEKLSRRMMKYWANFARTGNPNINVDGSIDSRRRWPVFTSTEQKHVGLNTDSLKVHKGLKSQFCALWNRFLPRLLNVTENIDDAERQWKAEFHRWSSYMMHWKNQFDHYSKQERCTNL
Sequence of Cholinesterase (P81908 whole entry): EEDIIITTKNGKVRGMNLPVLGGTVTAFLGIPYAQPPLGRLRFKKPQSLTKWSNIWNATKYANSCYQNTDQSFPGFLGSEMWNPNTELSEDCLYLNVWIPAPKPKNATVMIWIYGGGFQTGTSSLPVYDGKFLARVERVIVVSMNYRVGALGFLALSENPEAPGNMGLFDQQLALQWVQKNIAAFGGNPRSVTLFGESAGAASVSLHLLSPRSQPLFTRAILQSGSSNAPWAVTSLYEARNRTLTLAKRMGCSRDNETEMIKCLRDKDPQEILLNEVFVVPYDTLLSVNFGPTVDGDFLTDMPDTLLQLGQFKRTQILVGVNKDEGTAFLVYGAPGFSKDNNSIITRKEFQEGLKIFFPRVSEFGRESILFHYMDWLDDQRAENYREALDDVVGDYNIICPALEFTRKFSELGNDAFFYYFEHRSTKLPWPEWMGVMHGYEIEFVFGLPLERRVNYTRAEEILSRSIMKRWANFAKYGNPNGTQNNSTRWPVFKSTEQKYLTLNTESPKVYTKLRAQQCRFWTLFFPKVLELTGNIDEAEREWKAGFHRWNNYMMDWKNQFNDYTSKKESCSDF
Sequence of Cholinesterase (Equus caballus) (P81908 whole entry): as above
Sequence of Acetylcholinesterase (Electrophorus electricus) (O42275 24-633 limits assumed): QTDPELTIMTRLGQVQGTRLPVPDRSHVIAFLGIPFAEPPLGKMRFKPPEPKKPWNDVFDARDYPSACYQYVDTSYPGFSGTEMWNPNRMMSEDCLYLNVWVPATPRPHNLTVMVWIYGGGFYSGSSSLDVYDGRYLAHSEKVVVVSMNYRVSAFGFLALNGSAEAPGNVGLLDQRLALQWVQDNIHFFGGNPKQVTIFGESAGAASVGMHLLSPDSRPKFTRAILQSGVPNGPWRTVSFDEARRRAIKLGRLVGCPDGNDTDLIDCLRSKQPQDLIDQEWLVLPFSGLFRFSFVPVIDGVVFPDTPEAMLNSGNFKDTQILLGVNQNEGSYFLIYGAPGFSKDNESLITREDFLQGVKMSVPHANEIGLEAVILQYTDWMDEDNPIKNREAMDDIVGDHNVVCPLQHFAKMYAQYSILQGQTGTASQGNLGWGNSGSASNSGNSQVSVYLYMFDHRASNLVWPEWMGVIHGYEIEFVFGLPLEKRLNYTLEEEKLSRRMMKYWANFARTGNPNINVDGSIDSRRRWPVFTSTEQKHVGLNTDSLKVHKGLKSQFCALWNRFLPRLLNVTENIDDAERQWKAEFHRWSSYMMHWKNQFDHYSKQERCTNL
T1 sequence (P05067 whole entry): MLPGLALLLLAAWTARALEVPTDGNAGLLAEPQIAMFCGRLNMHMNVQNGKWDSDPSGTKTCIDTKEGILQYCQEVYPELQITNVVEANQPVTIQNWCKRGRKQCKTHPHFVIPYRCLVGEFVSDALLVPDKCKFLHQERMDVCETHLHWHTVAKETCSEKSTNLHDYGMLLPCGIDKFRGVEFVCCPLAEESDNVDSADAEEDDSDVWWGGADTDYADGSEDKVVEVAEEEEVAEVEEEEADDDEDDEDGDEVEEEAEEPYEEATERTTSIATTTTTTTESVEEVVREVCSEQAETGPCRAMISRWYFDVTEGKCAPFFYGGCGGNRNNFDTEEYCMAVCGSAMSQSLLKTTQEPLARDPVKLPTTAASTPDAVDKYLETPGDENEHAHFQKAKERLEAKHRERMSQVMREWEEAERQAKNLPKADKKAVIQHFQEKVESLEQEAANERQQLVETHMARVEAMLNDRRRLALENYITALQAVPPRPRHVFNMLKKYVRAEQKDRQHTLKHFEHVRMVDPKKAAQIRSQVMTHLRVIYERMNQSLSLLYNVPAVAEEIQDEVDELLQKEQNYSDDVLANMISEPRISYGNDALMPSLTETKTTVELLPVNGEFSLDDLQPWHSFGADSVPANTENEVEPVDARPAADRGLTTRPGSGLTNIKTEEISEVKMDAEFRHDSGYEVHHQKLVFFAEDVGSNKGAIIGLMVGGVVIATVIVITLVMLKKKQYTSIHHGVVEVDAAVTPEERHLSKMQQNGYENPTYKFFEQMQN

Take `O=c1cc(-c2ccccc2)oc2cc(OCCCN3CCN(CCCNc4c5c(nc6ccccc46)CCCC5)CC3)cc(O)c12`: in data set [1], the inhibition worked out at 79.1%. Besides, the viability at 24 h, 1 µM in [2] was 97.3%. In addition, the viability at 24 h, 50 µM in data set [3] amounted to 90.1%. Further, the result in [4] and in data set [8] was Active. Moreover, the Activity in [5] is below 36%. Besides, the viability at 24 h, 10 µM in data set [6] worked out at 94.4%. In addition, the viability at 24 h, 5 µM in data set [7] came out at 96.5%. The IC50 against Acetylcholinesterase was 133 nM; in [10], 6500 nM; at Cholinesterase, 558 nM. For the same molecule, the viability at 24 h, 25 µM in [9] came out at 92.7%.
In [1], `O=c1cc(-c2ccc([N+](=O)[O-])cc2)oc2cc(OCCCN3CCN(CCCNc4c5c(nc6ccccc46)CCCC5)CC3)ccc12` returned an inhibition of 61.1%. Also, the Activity in data set [5] was below 36%. The IC50 against Acetylcholinesterase was found to be 75 nM; in [10], 14100 nM; on Cholinesterase, 460 nM.
The corresponding values for `O=c1cc(-c2ccccc2)oc2cc(OCCCCCCN3CCN(CCCNc4c5c(nc6ccccc46)CCCC5)CC3)ccc12` are 63%, below 36%, 848 nM, 13500 nM and 414 nM.
For `O=c1cc(-c2ccccc2)oc2cc(OCCCCN3CCN(CCNc4c5c(nc6ccccc46)CCCC5)CC3)ccc12` the same measures were 53.7%, below 36%, 268 nM, 16400 nM and 197 nM.
On to `O=c1cc(-c2ccccc2)oc2cc(OCCN3CCN(CCCNc4c5c(nc6ccccc46)CCCC5)CC3)ccc12`, for which the inhibition in data set [1] was 70%. The Activity in data set [5] was below 36%. The values for the half-maximal inhibitory concentration (IC50) (on Acetylcholinesterase; in data set [10]; at Cholinesterase) were 416 nM, 9800 nM and 266 nM, respectively.
Turning to `COc1cc(OCCCN2CCN(CCCNc3c4c(nc5ccccc35)CCCC4)CC2)cc2occc(=O)c12`, in data set [1], the inhibition came to 62%. In [5], the Activity was below 36%. The IC50 on Acetylcholinesterase amounted to 8.4 nM; in data set [10], 12600 nM; on Cholinesterase, 35 nM. The Ratio IC50 in [11] was found to be 31; in [12], 318.
`Cc1ccc(-c2cc(=O)c3ccc(OCCCN4CCN(CCCNc5c6c(nc7ccccc57)CCCC6)CC4)cc3o2)cc1`: the inhibition in [1] came to 13.4%. For the same molecule, the Activity in data set [5] was below 36%. Besides, the IC50 turned out to be 316 nM against Acetylcholinesterase and 573 nM against Cholinesterase.
In data set [1], `O=c1ccoc2cc(OCCCN3CCN(CCCNc4c5c(nc6ccccc46)CCCC5)CC3)cc(O)c12` had an inhibition of 85.3%. For the same molecule, the inhibition result in data set [13] and in data set [14] was “Active” each time. For the same molecule, in [5], the Activity was below 36%. In addition, the IC50 was 15.4 nM at Acetylcholinesterase, 4800 nM in data set [10] and 45 nM against Cholinesterase.
In data set [1], `O=c1cc(-c2ccccc2)oc2cc(OCCCN3CCN(CCCNc4c5c(nc6ccccc46)CCCC5)CC3)ccc12` yielded an inhibition of 58%. In addition, the Activity in data set [5] is below 36%. Moreover, the IC50 on Acetylcholinesterase was 153 nM; in data set [10], 14900 nM; against Cholinesterase, 208 nM.
Consider `CN(C)c1ccc(-c2cc(=O)c3ccc(OCCCN4CCN(CCCNc5c6c(nc7ccccc57)CCCC6)CC4)cc3o2)cc1`, for which the inhibition in data set [1] worked out at 12.2%. Besides, in [5], the Activity was below 36%. Besides, the IC50 against Acetylcholinesterase turned out to be 230 nM; at Cholinesterase it was 845 nM.
On to `COc1ccc(-c2cc(=O)c3ccc(OCCCN4CCN(CCCNc5c6c(nc7ccccc57)CCCC6)CC4)cc3o2)cc1`, for which the inhibition in data set [1] was found to be 10.9%. In data set [5], the Activity was below 36%. Moreover, the figures for the IC50 against Acetylcholinesterase and against Cholinesterase were 417 nM and 655 nM, respectively.
In [1], `O=c1cc(-c2ccccc2)oc2cc(OCCCCCCN3CCN(CCNc4c5c(nc6ccccc46)CCCC5)CC3)ccc12` yielded an inhibition of 63.3%. The Activity in data set [5] was below 36%. Further, the IC50 against Acetylcholinesterase stood at 717 nM; in [10] it was 14200 nM; against Cholinesterase it was 289 nM.
In the case of `O=c1cc(-c2ccccc2)oc2cc(O)ccc12` [7-HYDROXYFLAVONE], the inhibition in data set [1] was 27.2%. Moreover, the IC50 against Acetylcholinesterase is 85000 nM; at Cholinesterase it was above 100000 nM.
For `Nc1ccc(-c2cc(=O)c3ccc(OCCCN4CCN(CCCNc5c6c(nc7ccccc57)CCCC6)CC4)cc3o2)cc1`, the inhibition in data set [1] came out at 9%. In addition, the Activity in data set [5] was below 36%. Besides, the IC50 against Acetylcholinesterase was 336 nM; against Cholinesterase it was 685 nM.
Molecule `O=c1cc(-c2ccccc2)oc2cc(OCCCCN3CCN(CCCNc4c5c(nc6ccccc46)CCCC5)CC3)ccc12` had an inhibition in [1] of 53.4%. In data set [5], the Activity was below 36%. Moreover, the IC50 against Acetylcholinesterase was 547 nM; in data set [10], 17300 nM; against Cholinesterase it was 317 nM.
The corresponding values for `O=c1cc(-c2ccccc2)oc2cc(OCCCCCN3CCN(CCCNc4c5c(nc6ccccc46)CCCC5)CC3)ccc12` are 62.5%, below 36%, 594 nM, 13200 nM and 423 nM.
Regarding `O=c1cc(-c2ccccc2)oc2cc(OCCCCCN3CCN(CCNc4c5c(nc6ccccc46)CCCC5)CC3)ccc12`, the inhibition in data set [1] turned out to be 65.4%. For the same molecule, in data set [5], the Activity was below 36%. The IC50 against Acetylcholinesterase is 568 nM; in data set [10], 12800 nM; on Cholinesterase it was 258 nM.
Molecule `O=c1cc(-c2ccccc2)oc2cc(OCCN3CCN(CCNc4c5c(nc6ccccc46)CCCC5)CC3)ccc12` had an inhibition in [1] of 54.1%. Further, the Activity in [5] is below 36%. Also, the IC50 against Acetylcholinesterase stood at 481 nM; in data set [10], 16800 nM; against Cholinesterase, 520 nM.
The corresponding values for `COc1cc(OCCCN2CCN(CCCNc3c4c(nc5ccccc35)CCCC4)CC2)cc2oc(-c3ccccc3)cc(=O)c12` are 68.7%, below 36%, 57.7 nM, 9600 nM and 360 nM.
For `O=c1cc(-c2ccc(Cl)cc2)oc2cc(OCCCN3CCN(CCCNc4c5c(nc6ccccc46)CCCC5)CC3)ccc12`, the inhibition in [1] amounted to 48.9%. In data set [5], the Activity was below 36%. The values for the IC50 at Acetylcholinesterase and against Cholinesterase were 40.1 nM and 994 nM, respectively.
In the case of `O=c1ccoc2cc(OCCCN3CCN(CCCNc4c5c(nc6ccccc46)CCCC5)CC3)ccc12`, the inhibition in data set [1] was found to be 67.4%. Further, the Ratio IC50 in data set [15] is 508; in [16] it was 2. In addition, the Activity in data set [5] is below 36%. In addition, the values for the IC50 (at Acetylcholinesterase; in [10]; at Cholinesterase) were 10.3 nM, 11500 nM and 25.8 nM, respectively.
On to `O=c1cc(-c2ccccc2)oc2cc(OCCCN3CCN(CCNc4c5c(nc6ccccc46)CCCC5)CC3)ccc12`, for which the inhibition in data set [1] is 59.1%. Moreover, the Activity in [5] is below 36%. In addition, the IC50 stood at 624 nM against Acetylcholinesterase, 13700 nM in data set [10] and 311 nM at Cholinesterase.
